Values quoted from earlier work as cited in PubChem BioAssay AID1259410 (Chemical Carcinogenesis Research Information System (CCRIS), 2018).

Tested on: rodent tumor promotion studies, tumor incidence
Experiment: CCRIS tumor promotion studies
[1] = Carcinogen: 7,12-DIMETHYLBENZ(A)ANTHRACENE, Doses [Carcinogen]: TOP, Route [Carcinogen]: DERMAL, Route [Promoter]: DERMAL, Species: MOUSE, Strain/Sex: FEMALE

Question: With `CC/C(=C(/CC)c1ccc(O)cc1)c1ccc(O)cc1` as the molecule, how does the outcome (Carcinogen: IRRADIATION, Doses [Carcinogen]: 260 CGY GAMMA RAYS AT DAY 20 OF PREGNANCY, Doses [Promoter]: 0, 0.376 UG/D RELEASED FROM PELLET IMPLANTED AFTER NURSING DISCONTINUED, PELLET REPLACED EVERY 8 WK (STUDY DURATION: 1 Y, Route [Carcinogen]: DERMAL, Route [Promoter]: IMPLANT, Species: RAT, Strain/Sex: WISTAR/FEMALE) read?
Answer: mammary gland: tumor

Question: What about the outcome (Carcinogen: Sodium arsenite, 7781-46-5, Doses [Carcinogen]: 0, 85 ppm to dams on gestational days 8-18, Doses [Promoter]: 2 ug on days 1, 2, 3, 4, and 5 of life, study duration for pups 90 wks, Route [Carcinogen]: Drinking water, days 8-18 of gestation (dams), Route [Promoter]: Subcutaneous (to offspring), Species: Mouse, Strain/Sex: C3H/HeNCr, (25 Male and female offspring/Group of dams exposed to sodium arsenite)) of the same molecule?
Answer: males: urinary bladder: tumors, liver: tumors females: urogenital tumors

Question: What about the outcome (Carcinogen: URETHANE, 51-79-6, Doses [Carcinogen]: 500 MG/KG BW ONCE (STUDY DURATION: 19 WK), Doses [Promoter]: 5 MG/KG BW 1X/WK FOR 18 WK BEGINNING 1 WK POST LAST CARCINOGEN DOSE (STUDY DURATION: 19 WK), Route [Carcinogen]: INTRAPERITONEAL, Route [Promoter]: INTRAMUSCULAR, Species: MOUSE, Strain/Sex: KUNMING/FEMALE) of the same molecule?
Answer: liver: tumor

Question: With `CC(=O)OC/C=C(C)/C=C/C=C(C)/C=C/C1=C(C)CCCC1(C)C` as the molecule, how does the outcome (Carcinogen: 3'-METHYL-4-DIMETHYLAMINOAZOBENZENE, 55-80-1, Doses [Carcinogen]: 0.06% IN DIET FOR 7 WK, Doses [Promoter]: 0, 6.25, 12.5, 25 MG 1/5 D FOR 10 WK ADMINISTERED 3 WK POST CARCINOGEN (STUDY DURATION: 25 WK), Doses [Promoter]: 0, 6.25, 12.5, 25 MG 1/5 D FOR 10 WK ADMINISTERED 3 WK POST CARCINOGEN (STUDY DURATION: 25 WK), Route [Carcinogen]: ORAL, Route [Promoter]: INTRAPERITONEAL, Species: RAT, Strain/Sex: DONRYU/MALE) read?
Answer: liver: hepatocellular carcinoma

Question: Which outcome (Carcinogen: 7,12-DIMETHYLBENZ(A)ANTHRACENE, Doses [Carcinogen]: TOP, Route [Carcinogen]: DERMAL, Route [Promoter]: DERMAL, Species: MOUSE, Strain/Sex: MALE) does the source give for `CCCCCCCCCCCCCCCCCCCCCCCCCCCC` here?
Answer: integumentary system (skin)

Question: For `c1ccc2c(c1)cc1ccc3cccc4ccc2c1c34`, which outcome (Carcinogen: BENZO[A]PYRENE [50-32-8], Doses [Carcinogen]: 8 MMOL/MOUSE 3X/WK FOR 25 WKS (STUDY DURATION: 30 WKS), Doses [Promoter]: UVA 40 KJ/M2 FOR 25 WKS 2 HR AFTER CARCINOGEN TREATMENT (STUDY DURATION: 30 WKS), Route [Carcinogen]: DERMAL, Route [Promoter]: IRRADIATION TO SKIN, Species: MOUSE, Strain/Sex: SKH-1/FEMALE (20/GROUP)) is on record?
Answer: skin: tumor incidence and multiplicity increased

Question: With `CN(C)CCC=C1c2ccccc2CCc2ccccc21` as the molecule, how does the outcome (Carcinogen: 7,12-DIMETHYLBENZ[A]ANTHRACENE, 57-97-6, Doses [Carcinogen]: 20 MG IN 2 ML PEANUT OIL ONCE, Doses [Promoter]: 0, 80 MG/M2 5 D/WK FOR 15 WK BEGINNING POST CARCINOGEN DOSE (STUDY DURATION: 15 WK), Route [Carcinogen]: GAVAGE, Route [Promoter]: INTRAPERITONEAL, Species: RAT, Strain/Sex: SPRAGUE-DAWLEY/FEMALE) read?
Answer: mammary gland: tumor

Question: With `O=C(CO)[C@@H](O)[C@H](O)[C@H](O)CO` as the molecule, how does the outcome (Carcinogen: N-NITROSOMORPHOLINE, 59-89-2, Doses [Carcinogen]: 100 MG/KG/WK IN DRINKING WATER FOR 7 WK, Doses [Promoter]: 0, 120 G/L IN DRINKING WATER AD LIBITUM BEGINNING 2 D AFTER LAST CARCINOGEN DOSE (STUDY DURATION: 501 D), Route [Carcinogen]: ORAL, Route [Promoter]: ORAL, Species: RAT, Strain/Sex: SPRAGUE-DAWLEY/MALE) read?
Answer: liver: hepatocellular carcinoma

Question: For `[Cl][Zn][Cl]`, which outcome (Carcinogen: URETHANE, 51-79-6, Doses [Carcinogen]: 1.5 MG/G ONCE, Doses [Promoter]: 0, 50, 200, 500 UG/ML IN DEIONIZED DRINKING WATER BEGINNING 3 WK PRIOR TO CARCINOGEN DOSE AND CONTINUING FOR 12 WK POST, Doses [Promoter]: 0, 50, 200, 500 UG/ML IN DEIONIZED DRINKING WATER BEGINNING 3 WK PRIOR TO CARCINOGEN DOSE AND CONTINUING FOR 12 WK POST, Route [Carcinogen]: INTRAPERITONEAL, Route [Promoter]: ORAL, Species: MOUSE, Strain/Sex: SWISS/FEMALE) is on record?
Answer: lung: adenoma

Question: For `CC(C)NCC(O)c1ccc(O)c(O)c1` (stereo not drawn), which outcome (Carcinogen: N-NITROSOMORPHOLINE, 59-89-2, Doses [Carcinogen]: 175 MG/L IN DRINKING WATER FOR 8 WK, Doses [Promoter]: 0, 0.1 MG/KG BW IN OLIVE OIL 1/2 D FOR 13 WK BEGINNING SIMULTANEOUSLY WITH CARCINOGEN TREATMENT (STUDY DURATION: 13 WK), Route [Carcinogen]: ORAL, Route [Promoter]: SUBCUTANEOUS, Species: RAT, Strain/Sex: SPRAGUE-DAWLEY/MALE) is on record?
Answer: liver: carcinoma

Question: Which results are given for `C=C[C@@]1(C)CC[C@](C)(C(C)C)c2cc3c4c(c[nH]c4c21)C[C@@H](CO)NC(=O)[C@H](C(C)C)N3C`?
Answer: outcome (Carcinogen: 7,12-DIMETHYLBENZ[A]ANTHRACENE, 57-97-6, Doses [Carcinogen]: 100 UG ONCE, Doses [Promoter]: 0, 5.5 NMOL 2/WK FOR 19 WK BEGINNING 1 WK POST CARCINOGEN DOSE (STUDY DURATION: 20 WK), Route [Carcinogen]: DERMAL, Route [Promoter]: DERMAL, Species: MOUSE, Strain/Sex: CD-1/FEMALE): skin: tumor; outcome (Carcinogen: 7,12-DIMETHYLBENZ[A]ANTHRACENE, Doses [Carcinogen]: 100 UG ONCE, Doses [Promoter]: 2.5 UG IN ACETONE 2/WK FOR 30 WK, Route [Carcinogen]: DERMAL, Route [Promoter]: DERMAL, Species: MOUSE, Strain/Sex: CD-1/FEMALE): integumentary system (skin): papilloma, carcinoma

Question: For `C=CCC1(C(C)C)C(=O)NC(=O)NC1=O`, which outcome (Carcinogen: N-NITROSODIETHYLAMINE, 55-18-5, Doses [Carcinogen]: 75 MG/KG BW IN 0.85% SALINE ONCE, Doses [Promoter]: 0, 453 PPM IN DIET FOR DURATION OF STUDY BEGINNING 2 WK POST CARCINOGEN DOSE (STUDY DURATION: 78 WK), Route [Carcinogen]: INTRAPERITONEAL, Route [Promoter]: ORAL, Species: RAT, Strain/Sex: F344/MALE) is on record?
Answer: liver: adenoma

Question: Which outcome (Carcinogen: DIETHYLNITROSAMINE [55-18-5], Doses [Carcinogen]: 200 MG/KG BW ONCE (STUDY DURATION: 24 WK), Doses [Promoter]: 0, 3000 PPM IN DIET FOR 22 WK BEGINNING 2 WK POST CARCINOGEN DOSE AND 1 WK PRIOR TO 2/3 PARTIAL HEPATECTOMY (STUDY DURAT, Route [Carcinogen]: INTRAPERITONEAL, Route [Promoter]: ORAL, Species: RAT, Strain/Sex: F344/MALE) does the source give for `CCOC(=O)C(C)(C)Oc1ccc(Cl)cc1` here?
Answer: liver: hepatocellular adenoma

Question: And the outcome (Carcinogen: DIETHYLNITROSAMINE [55-18-5], Doses [Carcinogen]: 200 MG/KG BW ONCE (STUDY DURATION: 48 WK), Doses [Promoter]: 0, 3000 PPM IN DIET FOR 46 WK BEGINNING 2 WK POST CARCINOGEN DOSE AND 1 WK PRIOR TO 2/3 PARTIAL HEPATECTOMY (STUDY DURAT, Route [Carcinogen]: INTRAPERITONEAL, Route [Promoter]: ORAL, Species: RAT, Strain/Sex: F344/MALE)?
Answer: liver: hepatocellular adenoma

Question: What about the outcome (Carcinogen: DIETHYLNITROSAMINE [55-18-5], Doses [Carcinogen]: 200 MG/KG BW ONCE (STUDY DURATION: 52 WK), Doses [Promoter]: 0, 3000 PPM IN DIET FOR 46 WK BEGINNING 2 WK POST CARCINOGEN DOSE AND 1 WK PRIOR TO 2/3 PARTIAL HEPATECTOMY (STUDY DURAT, Route [Carcinogen]: INTRAPERITONEAL, Route [Promoter]: ORAL, Species: RAT, Strain/Sex: F344/MALE) of the same molecule?
Answer: liver: hepatocellular adenoma

Question: What about the outcome (Carcinogen: DIETHYLNITROSAMINE, 55-18-5, Doses [Carcinogen]: 10 MG/KG IN SALINE ONCE 24 HR AFTER RECEIVING 70% PARTIAL HEPATECTOMIES, Doses [Promoter]: 0, 0.01% IN DIET FOR DURATION OF STUDY BEGINNING 2 WK POST CARCINOGEN DOSE (STUDY DURATION: 18 MO), Route [Carcinogen]: GAVAGE, Route [Promoter]: ORAL, Species: RAT, Strain/Sex: SPRAGUE-DAWLEY/FEMALE) of the same molecule?
Answer: liver: hepatocellular carcinoma

Question: What about the outcome (Carcinogen: DIETHYLNITROSAMINE, 55-18-5, Doses [Carcinogen]: 100 PPM IN DRINKING WATER FOR 2 WK, Doses [Promoter]: 0, 0.5% IN DIET BEGINNING 1 WK POST LAST CARCINOGEN DOSE AND CONTINUING FOR DURATION OF STUDY (STUDY DURATION: 32 WK), Route [Carcinogen]: ORAL, Route [Promoter]: ORAL, Species: RAT, Strain/Sex: WISTAR/MALE) of the same molecule?
Answer: liver: hepatocellular carcinoma

Question: And the outcome (Carcinogen: DIETHYLNITROSAMINE, 55-18-5, Doses [Carcinogen]: 150 MG/KG BW ONCE, Doses [Promoter]: 0, 0.1% IN DIET FOR 37 WK BEGINNING 2 WK POST CARCINOGEN TREATMENT (STUDY DURATION: 39 WK), Route [Carcinogen]: INTRAPERITONEAL, Route [Promoter]: ORAL, Species: RAT, Strain/Sex: F344/MALE)?
Answer: liver: adenoma

Question: For `C1COCCO1`, which outcome (Carcinogen: 7,12-DIMETHYLBENZ(A)ANTHRACENE, Doses [Carcinogen]: TOP, Route [Carcinogen]: DERMAL, Route [Promoter]: DERMAL, Species: MOUSE, Strain/Sex: MALE,FEMALE) is on record?
Answer: integumentary system (skin)

Question: With `Oc1cc(Cl)c(Cl)cc1Cl` as the molecule, how does the outcome [1] read?
Answer: integumentary system (skin)

Question: With `CCCCCCCCCCCCCCCCCC(=O)O[C@@]12C[C@@H](C)[C@@]3(O)[C@@H](C=C(CO)C[C@]4(O)C(=O)C(C)=C[C@@H]34)[C@@H]1C2(C)C` as the molecule, how does the outcome (Carcinogen: 7,12-DIMETHYLBENZ[A]ANTHRACENE, 57-97-6, Doses [Carcinogen]: 100 NMOL ONCE, Doses [Promoter]: 0, 100 NMOL 2/WK FOR 39 WK (STUDY DURATION: 39 WK), Route [Carcinogen]: DERMAL, Route [Promoter]: DERMAL, Species: MOUSE, Strain/Sex: NMRI) read?
Answer: skin: tumor

Question: Which outcome [1] does the source give for `Oc1ccc(Cl)cc1Cl` here?
Answer: integumentary system (skin)
